# Patent US7812220B2, “Engineering β-ketoacyl ACP synthase for novel substrate specificity” (Calgene LLC, priority 1999, dated 2010)
# Tests used:
# E. coli strain M15/pREP4 = assay: Effect of expression of KAS II mutants on the fatty acid composition of E. coli (GC FAME); format: cell-based; settings: for long chain fatty acid accumulation due to L111A and F133A: in combination mutants; for accumulation of 18:0: IPTG induced 2 hours
# Procedure: The mutant KAS II genes cloned behind an IPTG inducible T5 promoter (pQE30 vector, Qiagen) were transformed into E. coli strain M15/pREP4. E. coli M15/pREP4 strains containing no vector (−Vec), vector without insert (+Vec), or vectors expression wild-type KAS I or II or single or multiple engineered forms of KASII were grown to mid-log phase in LB media at 30° C. Expression was induced for 2 hours with IPTG (0.75 mM), cells were harvested, lyophilzed, and the lipids were extracted into toluene and derivatized by sodium methoxide and analyzed for fatty acid content by GC FAME analysis as described in Dehesh, et al. (1998) Plant J. 15:383-390.
# [1] = biological target: fatty acid synthase from Saccharomyces cerevisiae (Saccharomyces cerevisiae, UniProt P19097); settings: among chain length analogues maintaining the double bond positions; cited from earlier work
# KASII = settings: in comparison with cerulenin; cited from earlier work
# fatty acid synthase from Saccharomyces cerevisiae, sequence (P19097 whole entry): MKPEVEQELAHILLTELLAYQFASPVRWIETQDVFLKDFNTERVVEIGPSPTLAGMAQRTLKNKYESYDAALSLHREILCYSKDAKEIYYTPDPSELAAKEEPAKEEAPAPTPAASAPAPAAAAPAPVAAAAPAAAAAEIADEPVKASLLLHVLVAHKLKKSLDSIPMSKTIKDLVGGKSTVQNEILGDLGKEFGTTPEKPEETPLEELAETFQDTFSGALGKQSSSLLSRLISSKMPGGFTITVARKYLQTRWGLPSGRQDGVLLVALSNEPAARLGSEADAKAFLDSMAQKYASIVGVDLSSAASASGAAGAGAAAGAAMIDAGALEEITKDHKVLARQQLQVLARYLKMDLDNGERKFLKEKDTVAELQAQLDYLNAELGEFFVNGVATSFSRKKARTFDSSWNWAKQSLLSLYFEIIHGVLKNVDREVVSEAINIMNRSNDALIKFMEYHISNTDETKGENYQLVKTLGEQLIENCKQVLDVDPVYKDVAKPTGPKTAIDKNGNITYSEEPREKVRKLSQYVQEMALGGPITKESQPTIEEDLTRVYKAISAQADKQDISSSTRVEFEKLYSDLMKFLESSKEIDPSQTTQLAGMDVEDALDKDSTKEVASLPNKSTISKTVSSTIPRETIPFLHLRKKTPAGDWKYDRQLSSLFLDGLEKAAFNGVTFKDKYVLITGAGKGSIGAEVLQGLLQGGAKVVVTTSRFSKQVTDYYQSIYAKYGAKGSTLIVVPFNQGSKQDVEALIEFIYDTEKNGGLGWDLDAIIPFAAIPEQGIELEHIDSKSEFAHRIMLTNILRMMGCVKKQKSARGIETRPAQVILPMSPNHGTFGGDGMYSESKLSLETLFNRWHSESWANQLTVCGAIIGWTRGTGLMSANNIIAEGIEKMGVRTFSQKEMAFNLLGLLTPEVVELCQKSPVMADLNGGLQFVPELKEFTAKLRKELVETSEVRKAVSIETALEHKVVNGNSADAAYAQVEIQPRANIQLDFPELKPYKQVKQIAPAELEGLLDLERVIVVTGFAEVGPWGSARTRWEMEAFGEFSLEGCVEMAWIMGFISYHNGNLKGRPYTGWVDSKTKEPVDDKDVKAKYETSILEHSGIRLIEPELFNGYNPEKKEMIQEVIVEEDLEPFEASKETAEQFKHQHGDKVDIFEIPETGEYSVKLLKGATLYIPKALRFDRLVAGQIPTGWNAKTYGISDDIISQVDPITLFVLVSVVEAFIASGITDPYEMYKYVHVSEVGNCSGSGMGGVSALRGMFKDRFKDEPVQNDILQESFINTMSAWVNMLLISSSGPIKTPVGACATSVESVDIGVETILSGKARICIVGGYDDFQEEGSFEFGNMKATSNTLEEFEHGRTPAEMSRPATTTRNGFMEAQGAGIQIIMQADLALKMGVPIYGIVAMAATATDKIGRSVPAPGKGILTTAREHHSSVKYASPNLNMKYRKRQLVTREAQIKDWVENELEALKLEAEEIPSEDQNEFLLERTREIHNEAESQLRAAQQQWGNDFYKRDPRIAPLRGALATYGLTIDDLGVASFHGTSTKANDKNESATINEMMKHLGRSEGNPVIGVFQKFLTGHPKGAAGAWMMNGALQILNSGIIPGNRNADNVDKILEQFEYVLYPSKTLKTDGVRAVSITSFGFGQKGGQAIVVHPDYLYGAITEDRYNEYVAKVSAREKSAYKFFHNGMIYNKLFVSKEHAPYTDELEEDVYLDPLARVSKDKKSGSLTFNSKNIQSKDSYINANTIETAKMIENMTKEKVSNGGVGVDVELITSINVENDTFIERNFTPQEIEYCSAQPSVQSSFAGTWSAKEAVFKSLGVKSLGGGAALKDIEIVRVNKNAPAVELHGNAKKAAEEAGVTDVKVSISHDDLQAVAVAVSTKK
# fatty acid synthase from Saccharomyces cerevisiae, sequence (P07149 whole entry partner): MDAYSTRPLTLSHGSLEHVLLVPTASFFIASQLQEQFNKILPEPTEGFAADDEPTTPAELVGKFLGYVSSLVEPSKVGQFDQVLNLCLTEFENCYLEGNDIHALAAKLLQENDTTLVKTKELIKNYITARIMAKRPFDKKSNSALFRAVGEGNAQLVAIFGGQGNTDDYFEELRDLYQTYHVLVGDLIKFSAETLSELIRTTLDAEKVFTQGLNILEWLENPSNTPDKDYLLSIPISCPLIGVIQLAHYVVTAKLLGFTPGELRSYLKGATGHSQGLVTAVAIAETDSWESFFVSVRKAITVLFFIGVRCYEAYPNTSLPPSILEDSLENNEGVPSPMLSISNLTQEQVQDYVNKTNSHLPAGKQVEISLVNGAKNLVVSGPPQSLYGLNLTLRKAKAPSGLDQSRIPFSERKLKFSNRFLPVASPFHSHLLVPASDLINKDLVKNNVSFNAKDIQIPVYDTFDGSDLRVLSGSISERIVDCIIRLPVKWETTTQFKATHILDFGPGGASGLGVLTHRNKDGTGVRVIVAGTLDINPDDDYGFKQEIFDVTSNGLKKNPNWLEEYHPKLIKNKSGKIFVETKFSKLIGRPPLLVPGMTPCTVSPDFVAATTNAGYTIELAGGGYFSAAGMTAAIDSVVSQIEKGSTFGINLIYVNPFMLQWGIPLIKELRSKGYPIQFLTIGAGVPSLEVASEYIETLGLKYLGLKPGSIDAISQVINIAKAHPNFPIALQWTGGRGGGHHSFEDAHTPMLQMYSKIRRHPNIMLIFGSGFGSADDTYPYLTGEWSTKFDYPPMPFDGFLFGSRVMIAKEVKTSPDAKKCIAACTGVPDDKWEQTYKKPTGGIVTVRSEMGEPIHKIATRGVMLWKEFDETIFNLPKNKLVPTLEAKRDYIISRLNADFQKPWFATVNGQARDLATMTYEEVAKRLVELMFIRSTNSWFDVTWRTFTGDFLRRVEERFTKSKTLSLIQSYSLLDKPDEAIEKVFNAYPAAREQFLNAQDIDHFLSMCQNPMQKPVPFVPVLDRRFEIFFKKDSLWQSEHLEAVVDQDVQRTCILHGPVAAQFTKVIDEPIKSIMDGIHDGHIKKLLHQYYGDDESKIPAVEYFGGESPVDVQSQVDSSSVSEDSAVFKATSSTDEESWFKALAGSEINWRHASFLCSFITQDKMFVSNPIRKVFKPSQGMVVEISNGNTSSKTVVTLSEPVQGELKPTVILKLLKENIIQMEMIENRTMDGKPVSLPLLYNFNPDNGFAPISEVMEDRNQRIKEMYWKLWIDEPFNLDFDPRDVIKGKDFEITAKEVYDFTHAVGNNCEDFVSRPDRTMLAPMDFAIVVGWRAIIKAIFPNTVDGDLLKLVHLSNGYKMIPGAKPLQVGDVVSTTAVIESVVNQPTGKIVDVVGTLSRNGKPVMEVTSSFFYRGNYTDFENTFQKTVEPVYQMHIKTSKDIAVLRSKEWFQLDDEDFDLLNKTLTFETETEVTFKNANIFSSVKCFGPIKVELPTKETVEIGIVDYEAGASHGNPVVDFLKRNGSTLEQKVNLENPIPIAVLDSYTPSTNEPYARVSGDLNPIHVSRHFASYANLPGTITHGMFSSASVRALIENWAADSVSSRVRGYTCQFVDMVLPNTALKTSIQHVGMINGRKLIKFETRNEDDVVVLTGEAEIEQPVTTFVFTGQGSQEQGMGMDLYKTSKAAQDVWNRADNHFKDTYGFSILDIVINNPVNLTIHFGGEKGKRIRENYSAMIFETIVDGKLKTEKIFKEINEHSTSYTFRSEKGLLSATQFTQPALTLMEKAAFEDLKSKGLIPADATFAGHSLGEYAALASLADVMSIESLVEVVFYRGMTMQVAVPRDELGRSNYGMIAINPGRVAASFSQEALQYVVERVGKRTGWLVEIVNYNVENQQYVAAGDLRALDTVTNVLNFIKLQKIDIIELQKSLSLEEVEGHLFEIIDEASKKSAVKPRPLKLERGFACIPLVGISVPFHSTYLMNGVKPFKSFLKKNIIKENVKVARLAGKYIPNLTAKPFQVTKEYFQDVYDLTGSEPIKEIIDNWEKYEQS
molecule,measurement,setting,value
I108A,long chain fatty acid accumulation due to L111A and F133A,E. coli strain M15/pREP4,decrease the long chain fatty acid accumulation
"C/C=C/C/C=C/CCC(=O)[C@H]1O[C@H]1C(N)=O [Cerulenin, cerulenin]",inhibitory activity,[1],highest inhibitory activity
L111A: E. coli KAS II protein with L111A mutation,accumulation of 18:0,E. coli strain M15/pREP4; FIG. 3,13%
I114A,long chain fatty acid accumulation due to L111A and F133A,E. coli strain M15/pREP4,decrease the long chain fatty acid accumulation
CCCCCCCCC(=O)[C@H]1O[C@H]1C(N)=O [tetrahydrocerulenin],"inhibitory activity, less than cerulenin",KASII,more than 2 orders of magnitude
F133A: E. coli KAS II protein with F133A mutation,accumulation of 18:0,E. coli strain M15/pREP4; FIG. 3,7%
"L197: E. coli KAS II protein with L197A mutation (protein, UniProt P0AAI5 2-413, looked up, variant L197A) 3-oxoacyl-[acyl-carrier-protei …: SKRRVVVTGLGMLSPVGNTVESTWKALLAGQSGISLIDHFDTSAYATKFAGLVKDFNCEDIISRKEQRKMDAFIQYGIVAGVQAMQDSGLEITEENATRIGAAIGSGIGGLGLIEENHTSLMNGGPRKISPFFVPSTIVNMVAGHLTIMYGLRGPSISIATACTSGVHNIGHAARIIAYGDADVMVAGGAEKASTPAGVGGFGAARALSTRNDNPQAASRPWDKERDGFVLGDGAGMLVLEEYEHAKKRGAKIYAELVGFGMSSDAYHMTSPPENGAGAALAMANALRDAGIEASQIGYVNAHGTSTPAGDKAEAQAVKTIFGEAASRVLVSSTKSMTGHLLGAAGAVESIYSILALRDQAVPPTINLDNPDEGCDLDFVPHEARQVSGMEYTLCNSFGFGGTNGSLIFKKI",accumulation of 18:0,E. coli strain M15/pREP4; FIG. 3,4%
"KAS II/L111A-F133A (protein, UniProt P0AAI5 2-413, looked up, variant L111A F133A) 3-oxoacyl-[acyl-carrier-protei …: SKRRVVVTGLGMLSPVGNTVESTWKALLAGQSGISLIDHFDTSAYATKFAGLVKDFNCEDIISRKEQRKMDAFIQYGIVAGVQAMQDSGLEITEENATRIGAAIGSGIGGAGLIEENHTSLMNGGPRKISPFAVPSTIVNMVAGHLTIMYGLRGPSISIATACTSGVHNIGHAARIIAYGDADVMVAGGAEKASTPLGVGGFGAARALSTRNDNPQAASRPWDKERDGFVLGDGAGMLVLEEYEHAKKRGAKIYAELVGFGMSSDAYHMTSPPENGAGAALAMANALRDAGIEASQIGYVNAHGTSTPAGDKAEAQAVKTIFGEAASRVLVSSTKSMTGHLLGAAGAVESIYSILALRDQAVPPTINLDNPDEGCDLDFVPHEARQVSGMEYTLCNSFGFGGTNGSLIFKKI",level of 20:0,E. coli strain M15/pREP4; FIG. 3,2%
same,level of 20:1,E. coli strain M15/pREP4; FIG. 3,4%
